# Measurements as given in ChEMBL document CHEMBL5053549, “Discovery of Potent and Novel Dual PARP/BRD4 Inhibitors for Efficient Treatment of Pancreatic Cancer” (J Med Chem, 2021).
# Calls of active or inactive are those of the source. The rule behind the calls is not given here.
# Experiments:
# SW1990 [1] = assay: Inhibition of homologous recombinant repair in human SW1990 cells assessed as reduction in Olaparib-induced FOXM1 expression at 1 uM after 4 days in presence of Olaparib by Western blot analysis; format: functional, cell-based; conditions: time 4.0 day
# SW1990 [2] = assay: Inhibition of homologous recombinant repair in human SW1990 cells assessed as reduction in Olaparib-induced BRCA1 expression at 1 uM after 4 days in presence of Olaparib by Western blot analysis; format: functional, cell-based; conditions: time 4.0 day
# Mus musculus = assay: Toxicity in BALB/c mouse xenografted with human SW1990 cells assessed as heart damage at 45 mg/kg, ip administered for 28 consecutive days by H and E staining based […] microscopic analysis; format: organism-based; conditions: in vivo, 672 h, time 28 day
# SW1990 [3] = assay: Induction of autophagy in human SW1990 cells assessed as increase in pULK1 expression at 1 to 2 uM incubated for 4 days by immunofluorescence assay; format: functional, cell-based; conditions: dose 1-2 µM, time 4.0 day
Compound,inhibition (SW1990 [1]),inhibition (SW1990 [2]),Activity (Mus musculus),Activity (SW1990 [3])
Cc1sc2c(c1C)C(c1ccc(Cl)cc1)=N[C@@H](CC(=O)OC(C)(C)C)c1nnc(C)n1-2,Active,Active,,
CC[C@@H]1C(=O)N(C)c2cnc(N(C)c3ccc(-c4nc5c(C(N)=O)cccc5[nH]4)cc3OC)nc2N1C1CCCC1,,,Non-Toxic,Active
